Assay results from US10065973B2, “Substituted aminothiazolopyrimidinedione for the treatment and prophylaxis of virus infection” (Hoffmann-La Roche Inc., priority 2016, dated 2018).

Test system: human hepatocytes
Test: Metabolic conversion of prodrugs to active form in human hepatocytes
Type: in vitro ADME
Details: active metabolites Example 10-A and penciclovir, respectively
Description: Metabolism of Prodrugs: Compounds of Formula (II) A study was undertaken to evaluate the metabolic conversion of prodrugs, compounds of formula (II) or (IIa), to compounds of formula (I) or (Ia) of the present invention. The produgs, compounds of formula (II) or (IIa), can be metabolized to the active compound of formula (I) or (Ia) and other compounds of the invention in the body if they are served as prodrugs. Hepatocytes are often used to assess the degree of metabolic conversion of prodrugs in the body of animal or human. A study was undertaken to evaluate the metabolic conversion of prodrug Example 21, Example 22, Example 23, Example 24, Example 25 and Example 26, to the corresponding active form, Example 10-A, in the presence of human hepatocytes. The formation of active form, Example 10-A, was monitored in the study. For comparison, the metabolic conversion of famciclovir to penciclovir was also assessed. Cryopreserved hepatocytes plating medium (Cat.#: PY-HMD-03) was purchased from RILD Research Institute for Liver Diseases (Shanghai) Co. Ltd. Cryopreserved human hepatocyte (Cat.#: X008005, Lot#:VRR) was purchased from BioreclamationIVT (Baltimore, Md.). The stock hepatocyte suspension was prepared from cryopreserved hepatocytes in plating medium at the concentration of 1.8×10^6 cells/mL. Compounds were dissolved in DMSO to make 10 mM stock solutions. 10 μL of the stock solution was diluted to 990 μL plating medium to get a 100 μM working solution. Reaction suspensions were prepared in 24-well cell culture plate by mixing 200 μL of hepatocytes suspension (human) and 200 μL of working solution. The final incubation contained 0.9×10^6 cells/mL and 50 μM compound. The above mixtures were incubated at 37° C. in a humidified 5% CO2 atmosphere, with a 900 rpm shaking. After 180 min of incubation, 200 μL of the incubation mixture was transferred to 1.5 mL tube and quenched with 400 μL stop solution (ice-cold acetonitrile with 0.2 μM Tolbutamide as internal standard). The samples were centrifuged at 14000 rpm for 10 minutes and the resultant supernatants were subjected to LC-MS/MS analysis. The calibration curves were prepared in the following way. To a 200 μL of cell suspension (cell density of 1.8 million cells/mL), 198 μL of hepatocyte plating medium and 2 μL of the appropriate concentration of the compound in DMSO were added. Samples were mixed thoroughly and 200 μL of the mixture was transferred to 400 μL of the stop solution (see above). The standard curve range is from 1 μM to 25 μM. The compounds were quantified on an API5500 […] instrument in the ESI-Positive MRM mode.

| Structure (SMILES) | metabolic conversion to active metabolite in human hepatocytes |
| --- | --- |
| CCOC(=O)O[C@H](C)[C@@H]1C[C@@H]([C@@H](O)CC)O[C@H]1n1c(=O)sc2cnc(N)nc21 [Example 26, [(1R)-1-[(2R,3S,5S)-2-(5-Amino-2-oxo-thiazolo[4,5-d]pyrimidin-3-yl)-5-[(1S)-1-hydroxypropyl]tetrahydrofuran-3-yl]ethyl] ethyl carbonate] | metabolized to yield the corresponding active metabolites |
| CC[C@H](O)[C@@H]1C[C@@H]([C@@H](C)OC(=O)CC(C)C)[C@H](n2c(=O)sc3cnc(N)nc32)O1 [Example 25, [(1R)-1-[(2R,3S,5S)-2-(5-Amino-2-oxo-thiazolo[4,5-d]pyrimidin-3-yl)-5-[(1S)-1-hydroxypropyl]tetrahydrofuran-3-yl]ethyl] 3-methylbutanoate] | metabolized to yield the corresponding active metabolites |
| CC(=O)OCC(CCn1cnc2cnc(N)nc21)COC(C)=O [Famciclovir, famciclovir, reference compound] | metabolized to yield the corresponding active metabolites |
| CC[C@H](O)[C@@H]1C[C@@H]([C@@H](C)OC(C)=O)[C@H](n2c(=O)sc3cnc(N)nc32)O1 [Example 21, [(1R)-1-[(2R,3S,5S)-2-(5-Amino-2-oxo-thiazolo[4,5-d]pyrimidin-3-yl)-5-[(1S)-1-hydroxypropyl]tetrahydrofuran-3-yl]ethyl] acetate] | metabolized to yield the corresponding active metabolites |
| CC[C@H](O)[C@@H]1C[C@@H]([C@@H](C)OC(=O)C(C)(C)C)[C@H](n2c(=O)sc3cnc(N)nc32)O1 [Example 24, [(1R)-1-[(2R,3S,5S)-2-(5-Amino-2-oxo-thiazolo[4,5-d]pyrimidin-3-yl)-5-[(1S)-1-hydroxypropyl]tetrahydrofuran-3-yl]ethyl] 2,2-dimethylpropanoate] | metabolized to yield the corresponding active metabolites |
| CC[C@H](O)[C@@H]1C[C@@H]([C@@H](C)OC(=O)C(C)C)[C@H](n2c(=O)sc3cnc(N)nc32)O1 [Example 23, [(1R)-1-[(2R,3S,5S)-2-(5-Amino-2-oxo-thiazolo[4,5-d]pyrimidin-3-yl)-5-[(1S)-1-hydroxypropyl]tetrahydrofuran-3-yl]ethyl] 2-methylpropanoate] | metabolized to yield the corresponding active metabolites |
| CC[C@H](OC(C)=O)[C@@H]1C[C@@H]([C@@H](C)O)[C@H](n2c(=O)sc3cnc(N)nc32)O1 [Example 22, [(1S)-1-[(2S,4S,5R)-5-(5-Amino-2-oxo-thiazolo[4,5-d]pyrimidin-3-yl)-4-[(1R)-1-hydroxyethyl]tetrahydrofuran-2-yl]propyl] acetate] | metabolized to yield the corresponding active metabolites |
